Data reported in patent US20150094474A1, “AGRICULTURAL CHEMICALS” (Redx Pharma Ltd., priority 2012, published 2015).

Tests used:
[1] = tested on: peas; experiment: Herbicidal bioassay, peas (% necrosis); format: in vivo
Protocol: (§1) A laboratory bioassay was conducted to screen ten compounds (Fluazifop (25); Ethyl fluazifop (62); five fluazifop analogues: 27, 28, 63, 64 and 65; mesofulfuron (6); and two mesosulfuron analogues: 8 and 61. for activity against Lolium perenne, barley, peas and Chinese cabbage. Compounds were diluted in DMSO. Controls were performed using both DMSO and water.
(§2) Plants were obtained as seeds and were grown to the 2-4 true leaf stage. Plants were grown individually in seed trays. Each plant (in an approximately 3 cm diameter plug) was then detached from the tray for spraying. Environmental conditions were closely monitored and recorded and were within the optimal range of the target species.
(§3) The compounds were screened at a range of six concentrations, eg. 0.05%, 0.01%, 0.005%, 0.001%, 0.0005% and 0.0001%. Treatments will be applied directly onto the plants, using a potter tower.
(§4) One plant of each type will be sprayed using a potter tower. The 4 different types of weeds will be placed in a 10 cm diameter area underneath the potter sprayer and sprayed simultaneously. The growth of the plants and any Phytotoxicity effects will then be assessed at specified growth intervals, according to EPPO guideline PP1/135. Five replicates will be performed for each treatment, for each species.

[2] = tested on: barley; experiment: Herbicidal bioassay, barley (% necrosis); format: in vivo
Protocol: as §1, §2, §3, §4

CC(Oc1ccc(Oc2ccc(C(F)(F)F)cn2)cc1)C(=O)O (stereo not drawn) [Compound 25, Fluazifop, reference compound]
Sum of % necrosis in Peas ([1]; Dose 0.000001, Day 0): C (less than 50% necrosis)
Sum of % necrosis in Peas ([1]; Dose 0.000001, Day 1): C (less than 50% necrosis)
Sum of % necrosis in Peas ([1]; Dose 0.000001, Day 3): C (less than 50% necrosis)
Sum of % necrosis in Peas ([1]; Dose 0.000001, Day 7): C (less than 50% necrosis)
Sum of % necrosis in Peas ([1]; Dose 0.000001, Day 10): C (less than 50% necrosis)
Sum of % necrosis in Peas ([1]; Dose 0.000001, Day 14): C (less than 50% necrosis)
Sum of % necrosis in Peas ([1]; Dose 0.000001, Day 21): C (less than 50% necrosis)
Sum of % necrosis in Peas ([1]; Dose 0.000005, Day 0): C (less than 50% necrosis)
Sum of % necrosis in Peas ([1]; Dose 0.000005, Day 1): C (less than 50% necrosis)
Sum of % necrosis in Peas ([1]; Dose 0.000005, Day 3): C (less than 50% necrosis)
Sum of % necrosis in Peas ([1]; Dose 0.000005, Day 7): C (less than 50% necrosis)
Sum of % necrosis in Peas ([1]; Dose 0.000005, Day 10): C (less than 50% necrosis)
Sum of % necrosis in Peas ([1]; Dose 0.000005, Day 14): C (less than 50% necrosis)
Sum of % necrosis in Peas ([1]; Dose 0.000005, Day 21): C (less than 50% necrosis)
Sum of % necrosis in Peas ([1]; Dose 0.00001, Day 0): C (less than 50% necrosis)
Sum of % necrosis in Peas ([1]; Dose 0.00001, Day 1): C (less than 50% necrosis)
Sum of % necrosis in Peas ([1]; Dose 0.00001, Day 3): C (less than 50% necrosis)
Sum of % necrosis in Peas ([1]; Dose 0.00001, Day 7): C (less than 50% necrosis)
Sum of % necrosis in Peas ([1]; Dose 0.00001, Day 10): B (50%-80% necrosis)
Sum of % necrosis in Peas ([1]; Dose 0.00001, Day 14): B (50%-80% necrosis)
Sum of % necrosis in Peas ([1]; Dose 0.00001, Day 21): A (over 80% necrosis)
Sum of % necrosis in Peas ([1]; Dose 0.00005, Day 0): C (less than 50% necrosis)
Sum of % necrosis in Peas ([1]; Dose 0.00005, Day 1): C (less than 50% necrosis)
Sum of % necrosis in Peas ([1]; Dose 0.00005, Day 3): C (less than 50% necrosis)
Sum of % necrosis in Peas ([1]; Dose 0.00005, Day 7): C (less than 50% necrosis)
Sum of % necrosis in Peas ([1]; Dose 0.00005, Day 10): C (less than 50% necrosis)
Sum of % necrosis in Peas ([1]; Dose 0.00005, Day 14): C (less than 50% necrosis)
Sum of % necrosis in Peas ([1]; Dose 0.00005, Day 21): A (over 80% necrosis)
Sum of % necrosis in Peas ([1]; Dose 0.0001, Day 0): C (less than 50% necrosis)
Sum of % necrosis in Peas ([1]; Dose 0.0001, Day 1): C (less than 50% necrosis)
Sum of % necrosis in Peas ([1]; Dose 0.0001, Day 3): C (less than 50% necrosis)
Sum of % necrosis in Peas ([1]; Dose 0.0001, Day 7): C (less than 50% necrosis)
Sum of % necrosis in Peas ([1]; Dose 0.0001, Day 10): C (less than 50% necrosis)
Sum of % necrosis in Peas ([1]; Dose 0.0001, Day 14): C (less than 50% necrosis)
Sum of % necrosis in Peas ([1]; Dose 0.0001, Day 21): A (over 80% necrosis)
Sum of % necrosis in Peas ([1]; Dose 0.0005, Day 0): C (less than 50% necrosis)
Sum of % necrosis in Peas ([1]; Dose 0.0005, Day 1): C (less than 50% necrosis)
Sum of % necrosis in Peas ([1]; Dose 0.0005, Day 3): C (less than 50% necrosis)
Sum of % necrosis in Peas ([1]; Dose 0.0005, Day 7): C (less than 50% necrosis)
Sum of % necrosis in Peas ([1]; Dose 0.0005, Day 10): C (less than 50% necrosis)
Sum of % necrosis in Peas ([1]; Dose 0.0005, Day 14): C (less than 50% necrosis)
Sum of % necrosis in Peas ([1]; Dose 0.0005, Day 21): A (over 80% necrosis)
Sum of % necrosis in barley ([2]; Dose 0.000001, Day 0): C (less than 50% necrosis)
Sum of % necrosis in barley ([2]; Dose 0.000001, Day 1): C (less than 50% necrosis)
Sum of % necrosis in barley ([2]; Dose 0.000001, Day 3): C (less than 50% necrosis)
Sum of % necrosis in barley ([2]; Dose 0.000001, Day 7): C (less than 50% necrosis)
Sum of % necrosis in barley ([2]; Dose 0.000001, Day 10): C (less than 50% necrosis)
Sum of % necrosis in barley ([2]; Dose 0.000001, Day 14): C (less than 50% necrosis)
Sum of % necrosis in barley ([2]; Dose 0.000001, Day 21): C (less than 50% necrosis)
Sum of % necrosis in barley ([2]; Dose 0.000005, Day 0): C (less than 50% necrosis)
Sum of % necrosis in barley ([2]; Dose 0.000005, Day 1): C (less than 50% necrosis)
Sum of % necrosis in barley ([2]; Dose 0.000005, Day 3): C (less than 50% necrosis)
Sum of % necrosis in barley ([2]; Dose 0.000005, Day 7): C (less than 50% necrosis)
Sum of % necrosis in barley ([2]; Dose 0.000005, Day 10): C (less than 50% necrosis)
Sum of % necrosis in barley ([2]; Dose 0.000005, Day 14): C (less than 50% necrosis)
Sum of % necrosis in barley ([2]; Dose 0.000005, Day 21): C (less than 50% necrosis)
Sum of % necrosis in barley ([2]; Dose 0.00001, Day 0): C (less than 50% necrosis)
Sum of % necrosis in barley ([2]; Dose 0.00001, Day 1): C (less than 50% necrosis)
Sum of % necrosis in barley ([2]; Dose 0.00001, Day 3): C (less than 50% necrosis)
Sum of % necrosis in barley ([2]; Dose 0.00001, Day 7): C (less than 50% necrosis)
Sum of % necrosis in barley ([2]; Dose 0.00001, Day 10): C (less than 50% necrosis)
Sum of % necrosis in barley ([2]; Dose 0.00001, Day 14): C (less than 50% necrosis)
Sum of % necrosis in barley ([2]; Dose 0.00001, Day 21): C (less than 50% necrosis)
Sum of % necrosis in barley ([2]; Dose 0.00005, Day 0): C (less than 50% necrosis)
Sum of % necrosis in barley ([2]; Dose 0.00005, Day 1): C (less than 50% necrosis)
Sum of % necrosis in barley ([2]; Dose 0.00005, Day 3): C (less than 50% necrosis)
Sum of % necrosis in barley ([2]; Dose 0.00005, Day 7): C (less than 50% necrosis)
Sum of % necrosis in barley ([2]; Dose 0.00005, Day 10): C (less than 50% necrosis)
Sum of % necrosis in barley ([2]; Dose 0.00005, Day 14): C (less than 50% necrosis)
Sum of % necrosis in barley ([2]; Dose 0.00005, Day 21): A (over 80% necrosis)
Sum of % necrosis in barley ([2]; Dose 0.0001, Day 0): C (less than 50% necrosis)
Sum of % necrosis in barley ([2]; Dose 0.0001, Day 1): C (less than 50% necrosis)
Sum of % necrosis in barley ([2]; Dose 0.0001, Day 3): C (less than 50% necrosis)
Sum of % necrosis in barley ([2]; Dose 0.0001, Day 7): C (less than 50% necrosis)
Sum of % necrosis in barley ([2]; Dose 0.0001, Day 10): C (less than 50% necrosis)
Sum of % necrosis in barley ([2]; Dose 0.0001, Day 14): C (less than 50% necrosis)
Sum of % necrosis in barley ([2]; Dose 0.0001, Day 21): A (over 80% necrosis)
Sum of % necrosis in barley ([2]; Dose 0.0005, Day 0): C (less than 50% necrosis)
Sum of % necrosis in barley ([2]; Dose 0.0005, Day 1): C (less than 50% necrosis)
Sum of % necrosis in barley ([2]; Dose 0.0005, Day 3): C (less than 50% necrosis)
Sum of % necrosis in barley ([2]; Dose 0.0005, Day 7): C (less than 50% necrosis)
Sum of % necrosis in barley ([2]; Dose 0.0005, Day 10): C (less than 50% necrosis)
Sum of % necrosis in barley ([2]; Dose 0.0005, Day 14): B (50%-80% necrosis)
Sum of % necrosis in barley ([2]; Dose 0.0005, Day 21): A (over 80% necrosis)
